Experimental data reported in ChEMBL document CHEMBL5321290, “Discovery of the Diphenyl 6-Oxo-1,6-dihydropyridazine-3-carboxylate/carboxamide Analogue J27 for the Treatment of Acute Lung Injury and Sepsis by Targeting JNK2 and Inhibiting the JNK2-NF-κB/MAPK Pathway” (J Med Chem, 2023).
Active and inactive are the calls of the source. The calls are words filed in the database; no cut-off is given here.

Assays:
J774.A1 [1] = test: Antiinflammatory activity against mouse J774A.1 cells assessed as inhibition of LPS-stimulated TNFalpha mRNA expression pretreated for 2 hrs followed by stimulated with LPS by RT-qPCR analysis; assay type: functional, cell-based; conditions: dose 2.5-10 µM
Mus musculus [2] = test: Antiinflammatory activity against LPS-induced acute lung injury C57 mouse model assessed as reduction in LPS-induced neutrophil numbers in alveolar lavage fluid at 20 to 40 mg/kg, po thrice at 12 hrs interval followed 30 mins treated with LPS; assay type: functional, organism-based; conditions: dose 20-40 mg/kg, time 36.5 hrs
[3] = molecular target: Transcription factor p65 (Mus musculus) (UniProt Q04207); test: Inhibition of P65 phosphorylation in mouse J774A.1 cells pretreated at 10 uM for 2 hrs followed by induced with LPS for 30 mins by Western blot analysis; assay type: cell-based; conditions: J774.1, time 2.5 hrs
[4] = Subacute toxicity in ICR mouse assessed as pathological change in lung at 500 to 100 mg/kg, IG measured for 10 days by hematoxylin and eosin dye based light microscopy; assay type: organism-based; conditions: in vivo, po, 240 h, dose 500-100 mg/kg, time 10 day
[5] = Subacute toxicity in ICR mouse assessed as pathological change in kidney at 500 to 100 mg/kg, IG measured for 10 days by hematoxylin and eosin dye based light microscopy; assay type: organism-based; conditions: in vivo, po, 240 h, dose 500-100 mg/kg, time 10 day
[6] = molecular target: Transcription factor p65 (Mus musculus) (UniProt Q04207); test: Inhibition of P65 entry into nucleus in mouse J774A.1 cells assessed as density quantification pretreated at 10 uM for 2 hrs followed by induced with LPS for 30 mins by immunofluorescence analysis; assay type: cell-based; conditions: J774.1, time 2.5 hrs
[7] = Cmax in Sprague-Dawley rat at 10 mg/kg, po measured upto 24 hrs by UPLC-MS/MS analysis; assay type: ADME, organism-based; set-up: time < 24 hrs, dose 10 mg/kg, route po; conditions: in vivo
THP-1 = test: Antiinflammatory activity against human THP-1 cells assessed as inhibition of LPS-stimulated IL6 release measured after 30 mins by ELISA; assay type: functional, cell-based; conditions: THP-1, 0.5 h
[8] = Half life in Sprague-Dawley rat at 10 mg/kg, po measured upto 24 hrs by UPLC-MS/MS analysis; assay type: ADME, organism-based; conditions: in vivo
J774.A1 [9] = test: Antiinflammatory activity against mouse J774A.1 cells assessed as inhibition of LPS-stimulated IL6 release measured at 10 uM after 30 mins by ELISA relative to control; assay type: functional; conditions: J774.A1, 0.5 h
[10] = Subacute toxicity in ICR mouse assessed as pathological change in heart at 500 to 100 mg/kg, IG measured for 10 days by hematoxylin and eosin dye based light microscopy; assay type: organism-based; conditions: in vivo, po, 240 h, dose 500-100 mg/kg, time 10 day
[11] = molecular target: Mitogen-activated protein kinase 10 (Mus musculus) (UniProt Q61831); test: Binding affinity to JNK3 in protein lysate of LPS-stimulated mouse J774A.1 cells assessed as protein degradation in presence of pronase at 10 to 40 uM measured after overnight incubation by immunoblotting based drug affinity responsive target stability (DARTS) assay; assay type: subcellular; conditions: J774.1, dose 10-40 µM
[12] = molecular target: T1, NF-kappa-B inhibitor alpha (Mus musculus) (UniProt Q9Z1E3); test: […] in mouse J774A.1 cells pretreated at 10 uM for 2 hrs followed by induced with LPS for 30 mins by Western blot analysis; assay type: cell-based; conditions: J774.1
T1 sequence (whole entry): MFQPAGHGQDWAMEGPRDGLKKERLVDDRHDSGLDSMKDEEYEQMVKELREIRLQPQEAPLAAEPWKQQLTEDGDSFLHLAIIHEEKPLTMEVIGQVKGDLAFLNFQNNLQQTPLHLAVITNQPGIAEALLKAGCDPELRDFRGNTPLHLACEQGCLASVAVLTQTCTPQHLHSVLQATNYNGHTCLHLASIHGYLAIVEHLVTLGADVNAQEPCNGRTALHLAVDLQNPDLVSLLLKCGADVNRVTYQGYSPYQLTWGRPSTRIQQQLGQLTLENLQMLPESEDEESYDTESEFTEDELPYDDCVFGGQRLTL

[13] = molecular target: Mitogen-activated protein kinase 9 (Homo sapiens, UniProt P45984); test: Inhibition of JNK2 (unknown origin) assessed as inhibition rate at 10 uM by SPR analysis relative to control
Mus musculus [14] = test: Antiinflammatory activity against LPS-induced acute lung injury C57 mouse model assessed as decrease in LPS-induced IL-6 level in blood at 20 mg/kg, po thrice at 12 hrs interval; assay type: functional, organism-based
[15] = molecular target: T2, Mitogen-activated protein kinase kinase kinase 7 (Mus musculus) (UniProt Q62073); test: Inhibition of TAK1 phosphorylation in mouse J774A.1 cells pretreated at 10 uM for 2 hrs followed by induced with LPS for 30 mins by Western blot analysis; assay type: cell-based; conditions: J774.1, time 2.5 hrs
T2 sequence (whole entry): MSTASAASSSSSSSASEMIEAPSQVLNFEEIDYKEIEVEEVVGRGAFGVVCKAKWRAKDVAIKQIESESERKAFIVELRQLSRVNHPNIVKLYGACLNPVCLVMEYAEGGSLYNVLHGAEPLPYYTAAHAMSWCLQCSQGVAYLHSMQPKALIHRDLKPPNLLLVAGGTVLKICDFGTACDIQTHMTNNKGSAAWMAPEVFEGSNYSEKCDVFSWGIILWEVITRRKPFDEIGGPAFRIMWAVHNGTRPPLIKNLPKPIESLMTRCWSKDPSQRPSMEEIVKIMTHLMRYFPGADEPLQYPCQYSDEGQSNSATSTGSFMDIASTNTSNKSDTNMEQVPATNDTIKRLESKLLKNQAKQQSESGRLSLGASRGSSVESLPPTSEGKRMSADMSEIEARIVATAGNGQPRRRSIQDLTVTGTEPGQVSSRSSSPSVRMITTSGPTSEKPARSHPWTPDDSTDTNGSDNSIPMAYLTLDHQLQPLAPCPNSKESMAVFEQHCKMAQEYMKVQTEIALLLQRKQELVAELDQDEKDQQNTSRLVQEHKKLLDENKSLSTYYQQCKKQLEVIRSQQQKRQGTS

Mus musculus [16] = test: Antiinflammatory activity against LPS-induced acute lung injury C57 mouse model assessed as decrease in LPS-induced protein concentration in broncho alveolar lavage fluid at 20 mg/kg, po thrice at 12 hrs interval; assay type: functional, organism-based; conditions: Bronchoalveolar lavage
[17] = molecular target: Mitogen-activated protein kinase 9 (Mus musculus) (UniProt Q9WTU6); test: Binding affinity to JNK2 in protein lysate of LPS-stimulated mouse J774A.1 cells assessed as protein degradation in presence of pronase at 10 to 40 uM measured after overnight incubation by immunoblotting based drug affinity responsive target stability (DARTS) assay; assay type: subcellular; conditions: J774.1, dose 10-40 µM
Mus musculus [18] = test: Antiinflammatory activity against LPS-induced acute lung injury C57 mouse model assessed as improvement in alveolar structure at 20 mg/kg, po thrice at 12 hrs interval by hematoxylin and eosin dye based light microscopy; assay type: functional, organism-based; conditions: time 36.0 hrs
J774.A1 [19] = test: Antiinflammatory activity against mouse J774A.1 cells assessed as inhibition of LPS-stimulated TNFalpha release measured at 10 uM after 30 mins by ELISA relative to control; assay type: functional; conditions: J774.A1, 0.5 h

Sequence of Transcription factor p65 (Mus musculus) (Q04207 whole entry): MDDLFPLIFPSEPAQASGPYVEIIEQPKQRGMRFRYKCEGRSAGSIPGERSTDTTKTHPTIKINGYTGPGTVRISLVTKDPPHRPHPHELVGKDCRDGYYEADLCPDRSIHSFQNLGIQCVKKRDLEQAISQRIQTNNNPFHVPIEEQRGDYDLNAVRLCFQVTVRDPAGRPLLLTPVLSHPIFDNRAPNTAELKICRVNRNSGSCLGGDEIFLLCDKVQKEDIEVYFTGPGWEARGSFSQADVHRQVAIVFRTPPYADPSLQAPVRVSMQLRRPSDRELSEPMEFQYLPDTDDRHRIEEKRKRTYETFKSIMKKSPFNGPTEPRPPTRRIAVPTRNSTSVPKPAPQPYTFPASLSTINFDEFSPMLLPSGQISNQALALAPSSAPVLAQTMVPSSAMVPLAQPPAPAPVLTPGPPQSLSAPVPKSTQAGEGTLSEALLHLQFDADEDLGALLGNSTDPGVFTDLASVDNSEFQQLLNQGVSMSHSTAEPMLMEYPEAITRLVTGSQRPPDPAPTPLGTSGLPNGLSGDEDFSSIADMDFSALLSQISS
Sequence of Mitogen-activated protein kinase 9 (Mus musculus) (Q9WTU6 whole entry): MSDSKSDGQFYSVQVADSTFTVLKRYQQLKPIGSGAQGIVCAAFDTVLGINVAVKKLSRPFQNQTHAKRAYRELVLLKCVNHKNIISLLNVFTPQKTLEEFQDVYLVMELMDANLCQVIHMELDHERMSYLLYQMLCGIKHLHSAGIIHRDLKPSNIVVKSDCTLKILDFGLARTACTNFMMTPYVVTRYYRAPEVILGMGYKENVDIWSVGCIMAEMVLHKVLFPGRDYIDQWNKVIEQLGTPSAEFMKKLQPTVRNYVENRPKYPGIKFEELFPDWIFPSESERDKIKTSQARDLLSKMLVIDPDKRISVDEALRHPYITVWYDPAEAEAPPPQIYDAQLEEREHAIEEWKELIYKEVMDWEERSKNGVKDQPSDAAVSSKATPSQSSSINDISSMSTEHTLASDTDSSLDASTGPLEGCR
Sequence of Mitogen-activated protein kinase 10 (Mus musculus) (Q61831 whole entry): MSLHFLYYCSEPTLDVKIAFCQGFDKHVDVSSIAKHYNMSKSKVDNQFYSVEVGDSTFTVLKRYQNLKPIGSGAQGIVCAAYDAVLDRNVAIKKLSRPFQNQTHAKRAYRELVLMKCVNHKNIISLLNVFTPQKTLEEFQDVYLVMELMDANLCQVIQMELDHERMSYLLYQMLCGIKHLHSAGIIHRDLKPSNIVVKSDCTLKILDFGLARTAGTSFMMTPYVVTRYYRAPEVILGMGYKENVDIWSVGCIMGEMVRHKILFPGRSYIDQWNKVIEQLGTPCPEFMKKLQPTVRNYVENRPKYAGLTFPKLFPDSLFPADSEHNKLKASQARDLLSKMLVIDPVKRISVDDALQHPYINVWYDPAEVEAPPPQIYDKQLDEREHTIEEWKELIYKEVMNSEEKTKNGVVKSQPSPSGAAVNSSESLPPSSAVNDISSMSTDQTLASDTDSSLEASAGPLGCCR
Sequence of Mitogen-activated protein kinase 9 (P45984 whole entry, looked up): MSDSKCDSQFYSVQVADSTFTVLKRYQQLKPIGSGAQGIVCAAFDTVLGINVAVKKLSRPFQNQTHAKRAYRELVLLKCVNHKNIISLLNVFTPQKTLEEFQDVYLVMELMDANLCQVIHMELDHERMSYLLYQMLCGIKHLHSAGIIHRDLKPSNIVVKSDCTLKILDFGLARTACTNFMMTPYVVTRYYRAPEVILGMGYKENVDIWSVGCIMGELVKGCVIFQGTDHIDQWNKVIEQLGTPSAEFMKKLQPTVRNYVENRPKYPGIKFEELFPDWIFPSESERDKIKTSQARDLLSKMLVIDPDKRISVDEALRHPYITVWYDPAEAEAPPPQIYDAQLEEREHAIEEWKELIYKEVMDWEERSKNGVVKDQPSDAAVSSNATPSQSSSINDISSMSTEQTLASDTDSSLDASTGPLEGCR

**Q.** For `COc1cc2nccc(Oc3ccc(NC(=O)c4nn(-c5ccc(C)cc5)c(=O)cc4C)cc3)c2cc1OC`, which Activity (J774.A1 [1]) is on record?
**A.** The Activity was “Dose-Dependent Effect”.

**Q.** And the Activity (Mus musculus [2])?
**A.** The Activity was “Active”.

**Q.** What about the inhibition [3] of the same compound?
**A.** The inhibition was “Active”.

**Q.** And the Activity [4]?
**A.** The Activity was “Non-Toxic”.

**Q.** What about the Activity [5] of the same compound?
**A.** The Activity was “Non-Toxic”.

**Q.** And the inhibition [6]?
**A.** The inhibition was “Active”.

**Q.** And the Cmax [7]?
**A.** Its Cmax is 1870 ng/mL.

**Q.** What about the IC50 (THP-1) of the same compound?
**A.** Its IC50 is 220 nM.

**Q.** And the half-life [8]?
**A.** The half-life was 69.8 min.

**Q.** What about the inhibition at 10 µM (J774.A1 [9]) of the same compound?
**A.** Its inhibition at 10 µM is 71.5%.

**Q.** And the Activity [10]?
**A.** The Activity was “Non-Toxic”.

**Q.** And the Activity [11]?
**A.** Its Activity is “inactive”.

**Q.** And the Activity [12]?
**A.** Its Activity is “Active”.

**Q.** And the inhibition [13]?
**A.** Its inhibition is 64.8%.

**Q.** What about the Activity (Mus musculus [14]) of the same compound?
**A.** The Activity was “Active”.

**Q.** And the inhibition [15]?
**A.** The inhibition was “Active”.

**Q.** What about the Activity (Mus musculus [16]) of the same compound?
**A.** The Activity was “inactive”.

**Q.** What about the Activity [17] of the same compound?
**A.** Its Activity is “inactive”.

**Q.** And the Activity (Mus musculus [18])?
**A.** The Activity was “inactive”.

**Q.** And the inhibition at 10 µM (J774.A1 [19])?
**A.** Its inhibition at 10 µM is 56.8%.
